# Experimental data from PubChem BioAssay (NCI).
#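 Exposure lasted 48 hours, with cells grown in 96-well plates and compounds tested at five concentrations. The concentration for 50% growth inhibition is given as GI50. TGI denotes the concentration required for complete inhibition of growth.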
# How the values were obtained:
# Test in all cases: NCI anticancer screen, dose series, 48 h
# 786-0 renal = tested on: 786-0 renal
# A498 renal = tested on: A498 renal
# A549 NSCLC = tested on: A549 NSCLC
# ACHN renal = tested on: ACHN renal
# BT-549 breast = tested on: BT-549 breast
# CAKI-1 renal = tested on: CAKI-1 renal
# CCRF-CEM leukemia = tested on: CCRF-CEM leukemia
# COLO 205 colon = tested on: COLO 205 colon
# DU-145 prostate = tested on: DU-145 prostate
# EKVX NSCLC = tested on: EKVX NSCLC
# HCC-2998 colon = tested on: HCC-2998 colon
# HCT-116 colon = tested on: HCT-116 colon
# HCT-15 colon = tested on: HCT-15 colon
# HL-60(TB) leukemia = tested on: HL-60(TB) leukemia
# HOP-62 NSCLC = tested on: HOP-62 NSCLC
# HOP-92 NSCLC = tested on: HOP-92 NSCLC
# HS 578T breast = tested on: HS 578T breast
# HT29 colon = tested on: HT29 colon
# IGROV1 ovarian = tested on: IGROV1 ovarian
# K-562 leukemia = tested on: K-562 leukemia
# KM12 colon = tested on: KM12 colon
# LOX IMVI melanoma = tested on: LOX IMVI melanoma
# M14 melanoma = tested on: M14 melanoma
# MALME-3M melanoma = tested on: MALME-3M melanoma
# MCF7 breast = tested on: MCF7 breast
# MDA-MB-231 breast = tested on: MDA-MB-231 breast
# MDA-MB-435 = tested on: MDA-MB-435
# MDA-N = tested on: MDA-N
# MOLT-4 leukemia = tested on: MOLT-4 leukemia
# NCI-H226 lung = tested on: NCI-H226 lung
smiles,measurement,setting,value
CCOC(=O)CC1(O)C=CC(=O)C=C1,GI50,786-0 renal,0.596 µg/mL
same,TGI,786-0 renal,2 µg/mL
same,GI50,A498 renal,3.09 µg/mL
same,TGI,A498 renal,5.26 µg/mL
same,GI50,A549 NSCLC,4.95 µg/mL
same,TGI,A549 NSCLC,16.4 µg/mL
same,GI50,ACHN renal,2.43 µg/mL
same,TGI,ACHN renal,4.6 µg/mL
same,GI50,BT-549 breast,1.48 µg/mL
same,TGI,BT-549 breast,3.67 µg/mL
same,GI50,CAKI-1 renal,2.62 µg/mL
same,TGI,CAKI-1 renal,4.71 µg/mL
same,GI50,CCRF-CEM leukemia,0.757 µg/mL
same,TGI,CCRF-CEM leukemia,7.02 µg/mL
same,GI50,COLO 205 colon,2.59 µg/mL
same,TGI,COLO 205 colon,6.19 µg/mL
same,GI50,DU-145 prostate,2.54 µg/mL
same,TGI,DU-145 prostate,7.75 µg/mL
same,GI50,EKVX NSCLC,3.24 µg/mL
same,TGI,EKVX NSCLC,6.16 µg/mL
same,GI50,HCC-2998 colon,2.56 µg/mL
same,TGI,HCC-2998 colon,4.68 µg/mL
same,GI50,HCT-116 colon,2.47 µg/mL
same,TGI,HCT-116 colon,5.44 µg/mL
same,GI50,HCT-15 colon,0.313 µg/mL
same,TGI,HCT-15 colon,0.596 µg/mL
same,GI50,HL-60(TB) leukemia,1 µg/mL
same,TGI,HL-60(TB) leukemia,24.3 µg/mL
same,GI50,HOP-62 NSCLC,2.82 µg/mL
same,TGI,HOP-62 NSCLC,5.29 µg/mL
same,GI50,HOP-92 NSCLC,3.22 µg/mL
same,TGI,HOP-92 NSCLC,5.44 µg/mL
same,GI50,HS 578T breast,2.13 µg/mL
same,TGI,HS 578T breast,15.3 µg/mL
same,GI50,HT29 colon,2.17 µg/mL
same,TGI,HT29 colon,4.46 µg/mL
same,GI50,IGROV1 ovarian,0.885 µg/mL
same,TGI,IGROV1 ovarian,2.19 µg/mL
same,GI50,K-562 leukemia,1.37 µg/mL
same,TGI,K-562 leukemia,10.8 µg/mL
same,GI50,KM12 colon,0.33 µg/mL
same,TGI,KM12 colon,0.738 µg/mL
same,GI50,LOX IMVI melanoma,0.498 µg/mL
same,TGI,LOX IMVI melanoma,1.68 µg/mL
same,GI50,M14 melanoma,1.67 µg/mL
same,TGI,M14 melanoma,4.35 µg/mL
same,GI50,MALME-3M melanoma,0.914 µg/mL
same,TGI,MALME-3M melanoma,2.89 µg/mL
same,GI50,MCF7 breast,0.824 µg/mL
same,TGI,MCF7 breast,2.59 µg/mL
same,GI50,MDA-MB-231 breast,0.443 µg/mL
same,TGI,MDA-MB-231 breast,1.31 µg/mL
same,GI50,MDA-MB-435,2.35 µg/mL
same,TGI,MDA-MB-435,4.89 µg/mL
same,GI50,MDA-N,2.83 µg/mL
same,TGI,MDA-N,7.25 µg/mL
same,GI50,MOLT-4 leukemia,0.4 µg/mL
same,TGI,MOLT-4 leukemia,1.61 µg/mL
same,GI50,NCI-H226 lung,4.79 µg/mL
